# Ends that are not written are not given here. Peptide text beside a SMILES is read from it.
# How the values were obtained:
# Type in all cases: cell-based
# [1] = test system: Pseudomonas aeruginosa (ATCC 27853); conditions: for MBC Pseudomonas aeruginosa: ATCC 27853, 3 h
# Source text: (§1) The following pathogenic bacterial strains were used: The Gram-positive Enterococcus faecalis (ATCC 29212), Staphylococcus aureus (HNCMO112011), Listeria monocytogenes (ATCC 19111) and the Gram-negative Pseudomonas aeruginosa (ATCC 27853), Escherichia coli (ATCC 8739), Salmonella enterica (ATCC 13076), Klebsiella pneumoniae (NCTC 13440), Acinetobacter baumannii (ATCC 17978) obtained from the ATCC (United States) and NCTC (National Collection of Type Cultures–England). For the antifungal experiment the Candida albicans W01 strain ([Ördögh et al., 2014]) was used. Antimicrobial activities of peptides against ∼10^7 log phase bacteria were tested in Potassium-Phosphate Buffer (PPB, pH 7.4) as described by [Jenei et al. (2020)] while anti-Candida assays were done according to [Szerencsés et al. (2021)]. The two-fold dilution series of peptides ranged from 25 μM to 0.125 μM, while that of the antibiotics ampicillin (Merck) and miconazole (Duchefa Biochemie) from […] to 0.1 μM. The lowest concentration of the antimicrobial agents, which completely eliminated viable bacteria or C. albicans were considered as the minimal bactericidal concentration (MBC) and minimal fungicidal concentration (MFC).
# (§2) The minimal bactericidal concentrations (MBCs) were determined after 3 h of treatment of ∼10^7 log phase bacteria with 2-fold serial dilution of peptides from 25 µM to 0.8 µM. Only 25 of the 50 cationic M. truncatula peptides had activity at ≤25 µM (Supplementary Table S1). […] Three peptides were only active against two bacterial strains; NCR649 against L. monocytogenes and A. baumannii, NCR281 against L. monocytogenes and P. aeruginosa and NCR350 against A. baumannii and P. aeruginosa. […] None of the anionic NCR peptides affected the survival of the tested bacterial strains.
# [2] = test system: Escherichia coli (ATCC 8739); conditions: for MBC Escherichia coli: ATCC 8739, 3 h
# Source text: as §1, §2
# [3] = test system: Listeria monocytogenes (ATCC 19111); conditions: for MBC Listeria monocytogenes: ATCC 19111, 3 h; for Activity against L. monocytogenes: 3 h, ~10^7 log phase bacteria, peptides ≤25 µM
# Source text: as §1, §2
# [4] = test system: E. coli, S. enteritidis, P. aeruginosa, L. monocytogenes, S. aureus, E. faecalis, K. pneumoniae and A. baumannii; assay: Antimicrobial activity assay, spectrum over the eight tested pathogenic bacteria; conditions: 3 h treatment of ~10^7 log phase bacteria, peptides 25 to 0.8 µM; active = MBC ≤25 µM
# Source text: as §1
# We investigated the antimicrobial activity of 78 NCR peptides from M. truncatula and 12 NCRs from other IRLC legumes as well as their shorter derivatives against E. coli, S. enteritidis, P. aeruginosa, L. monocytogenes, S. aureus, E. faecalis, K. pneumoniae and A. baumannii (Supplementary Table S1). In the selection of the M. truncatula peptides, we considered their symbiotic expression levels but also their physicochemical properties. The antimicrobial activity of NCRs has so far been attributed to cationic peptides, with the exception of one anionic peptide. To investigate whether other anionic NCRs are antimicrobial, in addition to the cationic peptides, neutral and anionic NCRs were also included covering a broad range of peptides with different net charges (NC: from 7.8 to −10.2) and isoelectric points (pI: from 10.69 to 2.95). 50 peptides had positive net charge and pI > 7.0, while 28 peptides had negative net charge and pI < 7.0 (Supplementary Table S1A). Of the other legumes, only cationic NCR peptides were studied (Supplementary Table S1B).
# as §2
# [5] = test system: Acinetobacter baumannii (ATCC 17978); assay: microbe, parasite or virus in culture; conditions: 3 h, ~10^7 log phase bacteria, peptides ≤25 µM
# Source text: as §1, §2
# [6] = 3 h, ~10^7 log phase bacteria, peptides ≤25 µM
compound,measurement,setting,value
CC(C)C[C@H](NC(=O)[C@H](CCCCN)NC(=O)[C@H](CC(C)C)NC(=O)[C@H](CS)NC(=O)[C@H](CCCCN)NC(=O)CNC(=O)[C@@H](N)Cc1ccccc1)C(=O)N[C@@H](CCCCN)C(N)=O [GoNCR308 (16-23)] (H-FGKCLKLK-NH2),MBC Pseudomonas aeruginosa,[1],25 µM
same,MBC Escherichia coli,[2],25 µM
CC(C)C[C@H](NC(=O)[C@H](CS)NC(=O)[C@H](CCCCN)NC(=O)CNC(=O)[C@@H](N)Cc1ccccc1)C(=O)N[C@@H](CCCCN)C(=O)N[C@@H](CC(C)C)C(=O)N[C@@H](CCCCN)C(=O)N[C@@H](CS)C(=O)N[C@H](C(N)=O)C(C)C [GoNCR308 (16-25)] (H-FGKCLKLKCV-NH2; N-terminus assumed),MBC Pseudomonas aeruginosa,[1],12.5 µM
same,MBC Escherichia coli,[2],25 µM
same,MBC Listeria monocytogenes,[3],12.5 µM
CC(C)[C@H](NC(=O)[C@H](CS)NC(=O)[C@@H](N)CCCCN)C(=O)N[C@@H](Cc1ccc(O)cc1)C(=O)N[C@H](C(=O)N1CCC[C@H]1C(=O)N[C@@H](CCCCN)C(=O)N[C@@H](CCCNC(=N)N)C(N)=O)[C@@H](C)O [GoNCR308 (23-30)] (H-KCVYTPKR-NH2),MBC Escherichia coli,[2],50 µM
CC[C@H](C)[C@H](NC(=O)[C@H](CCCCN)NC(=O)[C@H](CC(=O)O)NC(=O)[C@@H]1CCCN1C(=O)[C@@H](N)Cc1ccccc1)C(=O)N[C@@H](Cc1ccccc1)C(=O)N[C@@H](Cc1ccccc1)C(=O)NCC(=O)N[C@@H](CC(=O)O)C(=O)N[C@@H](CS)C(=O)N[C@@H](CCC(N)=O)C(=O)N[C@H](C(=O)N[C@@H](CC(=O)O)C(=O)N[C@@H](CCCCN)C(=O)N[C@@H](CC(=O)O)C(=O)N[C@@H](CS)C(=O)N[C@@H](CCCCN)C(=O)N1CCC[C@H]1C(=O)N[C@@H](CCCCN)C(=O)N[C@@H](CCCNC(=N)N)C(=O)NCC(=O)N[C@H](C(=O)N[C@@H](CC(N)=O)C(=O)N[C@@H](Cc1ccccc1)C(=O)N[C@@H](CCCNC(=N)N)C(=O)N[C@@H](CS)C(=O)N[C@@H](CCCNC(=N)N)C(=O)N[C@@H](CCCCN)C(=O)NCC(=O)N[C@@H](CCCCN)C(=O)N[C@@H](CS)C(=O)N[C@@H](Cc1ccccc1)C(=O)N1CCC[C@H]1C(=O)N[C@H](C(=O)N[C@@H](CCCNC(=N)N)C(=O)O)C(C)C)C(C)C)[C@@H](C)O [MsNCR463] (H-FPDKIFFGDCQTDKDCKPKRGVNFRCRKGKCFPVR-OH; N-terminus assumed),Antibacterial spectrum over the eight tested bacterial strains,[4],only effective against P. aeruginosa
same,Effective concentration (MBC) against P. aeruginosa,"[1]; 3 h, ~10^7 log phase bacteria",25 µM
CC[C@H](C)[C@H](NC(=O)[C@@H]1CCCN1C(=O)[C@@H]1CCCN1C(=O)[C@@H](NC(=O)[C@H](CS)NC(=O)[C@@H](NC(=O)CNC(=O)[C@H](CCCCN)NC(=O)[C@H](CCCNC(=N)N)NC(=O)[C@H](CS)NC(=O)[C@H](CCCNC(=N)N)NC(=O)[C@H](Cc1ccccc1)NC(=O)[C@H](CC(N)=O)NC(=O)[C@H](C)NC(=O)CNC(=O)[C@H](Cc1ccc(O)cc1)NC(=O)[C@H](CC(C)C)NC(=O)[C@H](CCCCN)NC(=O)[C@@H]1CCCN1C(=O)[C@H](CS)NC(=O)[C@H](CC(=O)O)NC(=O)[C@H](CCCCN)NC(=O)[C@H](CC(=O)O)NC(=O)[C@H](CCCNC(=N)N)NC(=O)[C@H](CCCCN)NC(=O)[C@H](CS)NC(=O)[C@H](CO)NC(=O)[C@H](CO)NC(=O)[C@@H](NC(=O)[C@H](Cc1ccccc1)NC(=O)[C@@H](NC(=O)CNC(=O)[C@H](CC(C)C)NC(=O)[C@@H](N)Cc1ccccc1)[C@@H](C)O)[C@@H](C)CC)[C@@H](C)O)C(C)C)C(=O)O [NCR035] (H-FLGTFISSCKRDKDCPKLYGANFRCRKGTCVPPI-OH; N-terminus assumed),Activity against E. coli,[2]; [6],only effective
same,MBC Escherichia coli,[2],12.5 µM
CSCC[C@H](NC(=O)[C@H](CCCNC(=N)N)NC(=O)[C@@H](NC(=O)[C@H](Cc1c[nH]c2ccccc12)NC(=O)[C@H](CCCNC(=N)N)NC(=O)[C@H](CS)NC(=O)[C@H](CCC(=O)O)NC(=O)CNC(=O)[C@H](CCCCN)NC(=O)[C@@H](NC(=O)[C@H](CS)NC(=O)[C@H](CCCCN)NC(=O)[C@H](Cc1ccccc1)NC(=O)[C@H](CCCNC(=N)N)NC(=O)[C@H](CCCCN)NC(=O)[C@@H](NC(=O)[C@H](CCCNC(=N)N)NC(=O)[C@@H](NC(=O)[C@H](CO)NC(=O)[C@@H]1CCCN1C(=O)[C@@H]1CCCN1C(=O)[C@H](CS)NC(=O)[C@H](CC(=O)O)NC(=O)[C@H](C)NC(=O)[C@H](CC(=O)O)NC(=O)[C@@H](NC(=O)[C@H](CCC(=O)O)NC(=O)[C@H](CS)NC(=O)[C@H](CC(N)=O)NC(=O)[C@@H](NC(=O)[C@@H](N)Cc1ccc(O)cc1)C(C)C)[C@@H](C)O)[C@@H](C)O)C(C)C)C(C)C)[C@@H](C)O)C(=O)N[C@@H](CO)C(=O)N[C@@H](Cc1ccc(O)cc1)C(=O)N[C@@H](C)C(=O)O [NCR086] (H-YVNCETDADCPPSTRVKRFKCVKGECRWTRMSYA-OH; N-terminus assumed),MBC Listeria monocytogenes,[3],25 µM
CC[C@H](C)[C@H](NC(=O)[C@@H]1CCCN1C(=O)[C@H](CO)NC(=O)[C@@H](N)CO)C(=O)N[C@@H](CCCNC(=N)N)C(=O)N[C@H](C(=O)N[C@H](C(=O)N[C@@H](CC(=O)O)C(=O)N[C@H](C(=O)N[C@@H](CO)C(=O)N[C@@H](CCCNC(=N)N)C(=O)N1CCC[C@H]1C(=O)N[C@@H](CS)C(=O)N[C@H](C(=O)N[C@H](C(=O)N[C@@H](CC(=O)O)C(=O)N[C@@H](CCCCN)C(=O)N[C@@H](CC(=O)O)C(=O)N[C@@H](CS)C(=O)N[C@@H](CO)C(=O)N[C@@H](CCCCN)C(=O)N[C@H](C(=O)N[C@@H](CCC(=O)O)C(=O)N[C@@H](Cc1ccc(O)cc1)C(=O)NCC(=O)N[C@@H](Cc1ccc(O)cc1)C(=O)N[C@@H](CCCCN)C(=O)N[C@@H](CC(C)C)C(=O)N[C@@H](CCCNC(=N)N)C(=O)N[C@@H](CS)C(=O)N[C@@H](CCCNC(=N)N)C(=O)N[C@@H](CCCCN)C(=O)NCC(=O)N[C@@H](CCCNC(=N)N)C(=O)N[C@@H](CS)C(=O)N[C@H](C(=O)N[C@@H](Cc1c[nH]cn1)C(=O)N[C@H](C(=O)N1CCC[C@H]1C(=O)N[C@@H](CCCNC(=N)N)C(=O)O)[C@@H](C)CC)C(C)C)C(C)C)[C@@H](C)O)[C@@H](C)O)C(C)C)[C@@H](C)O)C(C)C [NCR533] (H-SSPIRVTDVSRPCTTDKDCSKVEYGYKLRCRKGRCVHIPR-OH; N-terminus assumed),MBC Escherichia coli,[2],25 µM
CC(C)C[C@H](NC(=O)[C@H](CS)NC(=O)[C@@H](NC(=O)[C@H](CS)NC(=O)[C@H](CCCCN)NC(=O)[C@@H](NC(=O)[C@@H](NC(=O)[C@H](CCC(=O)O)NC(=O)[C@@H]1CCCN1C(=O)[C@@H]1CCCN1C(=O)[C@@H](NC(=O)[C@H](CS)NC(=O)[C@H](CCCCN)NC(=O)[C@H](CC(C)C)NC(=O)[C@@H](NC(=O)[C@@H](N)CCCCN)C(C)C)[C@@H](C)O)C(C)C)C(C)C)[C@@H](C)O)C(=O)N[C@@H](CS)C(=O)NCC(=O)N[C@@H](CCCCN)C(=O)N[C@@H](CCCNC(=N)N)C(=O)N[C@H](C(=O)N[C@@H](CC(C)C)C(=O)N[C@@H](Cc1ccc(O)cc1)C(=O)O)[C@@H](C)O [NCR649] (H-KVLKCTPPEVVKCTCLCGKRTLY-OH; N-terminus assumed),Activity against A. baumannii,[5],active
same,Activity against L. monocytogenes,[3],active
AYYECSNDSACQATTKCVLPRVPRCIKYKCLCGNSNGSGNRWSTRPNRIQKGSTESNYF-OH (cysteines drawn unpaired) [NCR384],Antibacterial spectrum over the eight tested bacterial strains,[4],able to kill all tested bacteria except E. faecalis and K. pneumoniae
GRYTTPWCVRDIDCPKEKCKHPFKPRCLTHSCVCRLWGSQDVI-OH (cysteines drawn unpaired) [NCR281],Activity against P. aeruginosa,[1]; [6],active
same,Activity against L. monocytogenes,[3],active
KCYQDSDCPKDMCSFLFKPKCIFTRYFPIYLGGICGCDRKTCP-OH (cysteines drawn unpaired) [NCR645],Antibacterial spectrum over the eight tested bacterial strains,[4],kill all bacteria except E. faecalis
MKNGCKHTGHCPRKMCGAKTTKCRNNKCQCV [NCR192],Antibacterial spectrum over the eight tested bacterial strains,[4],"all active, with the exception of NCR192"
